The structures appear in SMILES notation. Like-named read-outs stand apart in the source and are kept apart here.

The nature of data set [1]: in vitro. The following applies: human.
In data set [2] the test system is HCV genotype 1b replicon. In words: HCV replicon assay (Zluc luciferase). In kind it is cell-based. To be noted: Zluc cells, 72 hours, read-out: HCV Replicon EC50. How it is done: Huh-7-derived cell line (Zluc) that harbors an HCV genotype 1b replicon and a luciferase reporter gene was grown in Dulbecco's Modified Eagle Medium (DMEM) supplemented with 10% fetal bovine serum, 2 mM GlutaMAX, 1% MEM nonessential amino acids, 100 IU/mL penicillin, 100 μg/mL streptomycin, and 0.5 mg/mL Geneticin® (G418). For dose response testing the cells were seeded in 96-well plates at 7.5×10^3 cells per well in a volume of 50 μL, and incubated at 37° C./5% CO2. Drug solutions were made up freshly in Huh-7 media as 2× stocks. Ten additional 5-fold dilutions were prepared from these stocks in DMEM without G418. At least three hours after Zluc cells were seeded, drug treatment was initiated by adding 50 μL of drug dilutions to the plates in duplicate. Final concentrations of drug ranged from 100 μM to […]. Cells were then incubated at 37° C./5% CO2. Alternatively, compounds were tested at two concentrations (1 μM and 10 μM). […] For this, media was removed from the plates via gentle tapping. Fifty microliters of ONE-glo luciferase assay reagent was added to each well. The plates were shaken gently for 3 min at room temperature and luminescence was measured on a Victor^3 V 1420 multilabel counter (Perkin Elmer) with a 1 second read time using a 700 nm cut-off filter. The EC50 values were calculated from dose response curves from the resulting best-fit equations determined by Microsoft Excel and XLfit 4.1 software. When screening at two fixed concentrations, the results were expressed as % inhibition at 1 μM and 10 μM.
On the technique in general: A replicon is a self-replicating genome or part of one, used to study replication in cells.

Data set [3] can be described thus: Liver triphosphate pharmacokinetics after single oral dose in CD-1 mice.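 As to Ms Liver TP AUC: pmol·h/g liver normalized to a 1 µmol/kg dose.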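 As to Ms Liver TP Cmax: pmol/g liver normalized to a 1 µmol/kg dose.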 In kind it is in vivo. The following applies: single oral dose 10 mg/kg in PEG 200. Also noted: key: + ≤ 15; 15 < ++ ≤ 50; 50 < +++ ≤ 100; 100 < ++++; BLQ = below limit of quantitation. How it is done: Internal standard solution was added to the homogenate followed by neutralization with 20% ammonium hydroxide solution and addition of 500 μL 1% formic acid. The tissue samples were extracted by weak anion exchange solid phase extraction (SPE). Post extraction, the eluates were evaporated under nitrogen, followed by reconstitution before injection onto the LC-MS/MS system.

The nature of data set [4]: Plasma nucleoside pharmacokinetics after single oral dose in CD-1 mice.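 As to Ms Plasma nucleoside AUC: pmol·h/mL plasma normalized to a 1 µmol/kg dose.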 Type of data set: in vivo. To be noted: single oral dose 10 mg/kg in PEG 200. How it is done:
Plasma samples were analyzed for nucleoside by LC-MS/MS. The internal standard (IS) was either 2′-MeG-D3 or tiapride. For protein precipitation and extraction, each plasma sample (50 μL) was treated with 500 μL of 0.2% formic acid in acetonitrile and 20 μL of the internal standard working solution. After vortexing and centrifugation, 500 μL of the sample extracts were transferred to a new plate, dried under N2 at ˜28° C. and reconstituted with 75 μL of 0.2% FA in water. The extracts were chromatographed on an Aquasil C18 column using a gradient system of 0.2% formic acid in water and acetonitrile. The analytes were detected and quantified by tandem mass spectrometry in positive ion mode on an MDS Sciex API5000 equipped with a Turbo Ionspray® interface. The calibration range was 0.500 (LLOQ) to 200 ng/mL in mouse plasma.

The test system of data set [5] is Zluc cells. Briefly: Cytotoxicity evaluation, CellTiter-Blue Cell Viability Assay. The following applies: Zluc cells, CellTiter-Blue. (The colour change of resazurin is a common sign of viable cells or microbes.)

`CCOC(=O)NCCC(C)(C)C(=O)SCCOP(=O)(NCc1ccccc1)OC[C@H]1O[C@@H](n2ccc(=O)[nH]c2=O)[C@](C)(Cl)[C@@H]1O` (mixture of isomers) [Compound 51 Mixture of P-Diastereoisomers] came in with a CC50 in data set [1] above 50 µM. In addition, in data set [2] (Hepatitis C virus, 72 h), the EC50 – broadly, the concentration that produces a half-maximal response – was 250 to 1000 nM.
`CC(C)OC(=O)[C@H](C)NP(=O)(OC[C@H]1O[C@@H](n2cnc3c(=O)[nH]c(N)nc32)[C@](C)(Cl)[C@@H]1O)Oc1ccccc1` (single isomer, unassigned) [Compound 21ii Diastereomer 1] returned a CC50 in data set [1] above 50 µM. Also, the EC50 in data set [2] (Hepatitis C virus, 72 h) was above 10000 nM.
With `C[C@H](NP(=O)(OC[C@H]1O[C@@H](n2ccc(=O)[nH]c2=O)[C@](C)(Cl)[C@@H]1O)Oc1ccccc1)C(=O)OCC(C)(C)C` (single isomer, unassigned) [Compound 42ii Single Diastereoisomer], the CC50 in data set [1] is above 50 µM. Moreover, in data set [2] (Hepatitis C virus, 72 h), the EC50 was below 250 nM.
On to `CC(C)OC(=O)C(C)NP(=O)(OCCSC(=O)C(C)(C)C)OC[C@H]1O[C@@H](n2ccc(=O)[nH]c2=O)[C@](C)(Cl)[C@@H]1O` (single isomer, unassigned) [Compound 43ii Diastereomer 2], for which the CC50 in data set [1] is above 50 µM. Moreover, the EC50 in data set [2] (Hepatitis C virus, 72 h) lay in the range of 250 to 1000 nM.
In turn, `CC(C)(CO)C(=O)SCCOP1(=O)OC[C@H]2O[C@@H](n3ccc(=O)[nH]c3=O)[C@](C)(Cl)[C@@H]2O1` (single isomer, unassigned) [Compound 46 Single Diastereoisomer] came in with a CC50 in data set [1] above 50 µM. In addition, the EC50 in data set [2] (Hepatitis C virus, 72 h) is below 250 nM.
Regarding `CC(C)OC(=O)[C@H](C)NP(=O)(OC[C@H]1O[C@@H](n2ccc(N)nc2=O)[C@](C)(Cl)[C@@H]1O)Oc1ccccc1` (single isomer, unassigned) [Compound 56ii Diastereomer 1], the CC50 in data set [1] is above 50 µM. Further, the EC50 in data set [2] (Hepatitis C virus, 72 h) is above 10000 nM.
Take `CC(C)(C)C(=O)SCCOP1(=O)OC[C@H]2O[C@@H](n3ccc(N)nc3=O)[C@](C)(Cl)[C@@H]2O1` (single isomer, unassigned) [Compound 61 Diastereomer 2]: in data set [3], the “Ms Liver TP AUC” value is reported as “+++ (500 < +++ ≤ 1500)” and the “Ms Liver TP Cmax” value is recorded as “++++ (100 < ++++)”. Moreover, in data set [4], the “Ms Plasma nucleoside AUC” value was “+ (+ ≤ 150)” and the “Ms Plasma nucleoside Cmax” value is given as “+ (+ ≤ 15)”. This compound also gave a CC50 in data set [5] above 50 µM. In data set [2], the EC50 was below 250 nM.
As for `CCCCOC(=O)[C@@H](C)NP(=O)(OC[C@H]1O[C@@H](n2ccc(=O)[nH]c2=O)[C@](C)(Cl)[C@@H]1O)Oc1ccccc1` (single isomer, unassigned) [Compound 202i Diastereomer 2], in data set [3], the “Ms Liver TP AUC” value was “++++ (1500 < ++++)” and the “Ms Liver TP Cmax” value was “++++ (100 < ++++)”. Besides, in data set [4], the “Ms Plasma nucleoside AUC” value is on record as “++++ (1500 < ++++)” and the “Ms Plasma nucleoside Cmax” value is “++++ (100 < ++++)”. In data set [5], this compound showed a CC50 above 50 µM. For the same compound, the EC50 in data set [2] is 250 to 1000 nM.
Consider `C[C@@H](NP(=O)(OC[C@H]1O[C@@H](n2ccc(=O)[nH]c2=O)[C@](C)(Cl)[C@@H]1O)Oc1ccccc1)C(=O)OCc1ccccc1` (single isomer, unassigned) [Compound 205i Diastereomer 2], for which, in data set [3], the “Ms Liver TP AUC” value is listed as “++++ (1500 < ++++)” and the “Ms Liver TP Cmax” value is given as “++++ (100 < ++++)”. In data set [4], the “Ms Plasma nucleoside AUC” value is “++++ (1500 < ++++)” and the “Ms Plasma nucleoside Cmax” value was “+++ (50 < +++ ≤ 100)”. This compound also came in with a CC50 in data set [5] above 50 µM. Further, in data set [2], the EC50 fell in the range of 250 to 1000 nM.
In data set [1], `CC(C)OC(=O)[C@H](C)NP(=O)(OC[C@H]1O[C@@H](n2cc(F)c3c(N)ncnc32)[C@](C)(Cl)[C@@H]1O)Oc1ccccc1` (single isomer, unassigned) [Compound 207ii Diastereomer 1] gave a CC50 above 50 µM. Moreover, the EC50 in data set [2] (Hepatitis C virus, 72 h) is above 10000 nM.
As to `CC(C)OC(=O)[C@H](C)NP(=O)(OC[C@H]1O[C@@H](n2ccc3c(N)ncnc32)[C@](C)(Cl)[C@@H]1O)Oc1ccccc1` (single isomer, unassigned) [Compound 208ii Diastereomer 2], in data set [3], the “Ms Liver TP AUC” value is on record as “BLQ” and the “Ms Liver TP Cmax” value is reported as “BLQ”. The compound further yielded a CC50 in data set [5] above 50 µM. Also, the EC50 in data set [2] was above 10000 nM.
As to `CCCCOC(=O)[C@H](C)NP(=O)(OC[C@H]1O[C@@H](n2ccc(=O)[nH]c2=O)[C@](C)(Cl)[C@@H]1O)Oc1ccccc1` (single isomer, unassigned; diastereomer 1) [Compound 202ii Diastereomer 1], in data set [3], the “Ms Liver TP AUC” value was “+++ (500 < +++ ≤ 1500)” and the “Ms Liver TP Cmax” value is “++++ (100 < ++++)”. For the same compound, in data set [4], the “Ms Plasma nucleoside AUC” value is “++++ (1500 < ++++)” and the “Ms Plasma nucleoside Cmax” value is reported as “++++ (100 < ++++)”. Moreover, the CC50 in data set [5] is above 50 µM. Moreover, the EC50 in data set [2] was below 250 nM.
For the compound `CCOC(=O)[C@H](C)NP(=O)(OC[C@H]1O[C@@H](n2ccc(=O)[nH]c2=O)[C@](C)(Cl)[C@@H]1O)Oc1ccccc1` (single isomer, unassigned; diastereomer 1) [Compound 203ii Diastereomer 1], in data set [3], the “Ms Liver TP AUC” value is listed as “+++ (500 < +++ ≤ 1500)” and the “Ms Liver TP Cmax” value is “+++ (50 < +++ ≤ 100)”. For the same compound, in data set [4], the “Ms Plasma nucleoside AUC” value is recorded as “+++ (500 < +++ ≤ 1500)” and the “Ms Plasma nucleoside Cmax” value is given as “+++ (50 < +++ ≤ 100)”. For the same compound, in data set [5], the CC50 is above 50 µM. Also, the EC50 in data set [2] is 250 to 1000 nM.
For the compound `CCOC(=O)[C@H](CC(C)C)NP(=O)(OC[C@H]1O[C@@H](n2ccc(=O)[nH]c2=O)[C@](C)(Cl)[C@@H]1O)Oc1ccccc1` (single isomer, unassigned; diastereomer 1) [Compound 204ii Diastereomer 1], in data set [3], the “Ms Liver TP AUC” value is reported as “++ (150 < ++ ≤ 500)” and the “Ms Liver TP Cmax” value is given as “++ (15 < ++ ≤ 50)”. In data set [4], the “Ms Plasma nucleoside AUC” value is “+++ (500 < +++ ≤ 1500)” and the “Ms Plasma nucleoside Cmax” value is on record as “+++ (50 < +++ ≤ 100)”. The compound further returned a CC50 in data set [5] above 50 µM. Moreover, in data set [2], the EC50 lay in the range of 1000 to 10000 nM.
Turning to `CCCCOC(=O)[C@H](C)NP(=O)(OC[C@H]1O[C@@H](n2ccc(=O)[nH]c2=O)[C@](C)(Cl)[C@@H]1O)Oc1ccccc1` (single isomer, unassigned; diastereomer 2) [Compound 202ii Diastereomer 2], in data set [3], the “Ms Liver TP AUC” value was “+++ (500 < +++ ≤ 1500)” and the “Ms Liver TP Cmax” value is given as “+++ (50 < +++ ≤ 100)”. In addition, in data set [4], the “Ms Plasma nucleoside AUC” value is reported as “++++ (1500 < ++++)” and the “Ms Plasma nucleoside Cmax” value is recorded as “++++ (100 < ++++)”. The compound also had a CC50 in data set [5] above 50 µM. Further, the EC50 in data set [2] is below 250 nM.
With `CCOC(=O)[C@H](C)NP(=O)(OC[C@H]1O[C@@H](n2ccc(=O)[nH]c2=O)[C@](C)(Cl)[C@@H]1O)Oc1ccccc1` (single isomer, unassigned; diastereomer 2) [Compound 203ii Diastereomer 2], in data set [3], the “Ms Liver TP AUC” value was “++ (150 < ++ ≤ 500)” and the “Ms Liver TP Cmax” value is reported as “++ (15 < ++ ≤ 50)”. In data set [4], the “Ms Plasma nucleoside AUC” value was “+++ (500 < +++ ≤ 1500)” and the “Ms Plasma nucleoside Cmax” value is “+++ (50 < +++ ≤ 100)”. Besides, in data set [5], the CC50 is above 50 µM. Besides, in data set [2], the EC50 was 250 to 1000 nM.
As for `CCOC(=O)[C@H](CC(C)C)NP(=O)(OC[C@H]1O[C@@H](n2ccc(=O)[nH]c2=O)[C@](C)(Cl)[C@@H]1O)Oc1ccccc1` (single isomer, unassigned; diastereomer 2) [Compound 204ii Diastereomer 2], in data set [3], the “Ms Liver TP AUC” value is listed as “++ (150 < ++ ≤ 500)” and the “Ms Liver TP Cmax” value is recorded as “++ (15 < ++ ≤ 50)”. In data set [4], the “Ms Plasma nucleoside AUC” value is reported as “++++ (1500 < ++++)” and the “Ms Plasma nucleoside Cmax” value is on record as “++++ (100 < ++++)”. Besides, the CC50 in data set [5] was above 50 µM. In addition, the EC50 in data set [2] was in the range of 250 to 1000 nM.
In the case of `C[C@@]1(Cl)[C@H](O)[C@@H](CO)O[C@H]1n1cnc2c(N)ncnc21` [Compound 302, 2′-C-Chloro-2′-C-methyladenosine], the CC50 in data set [1] is above 50 µM. The EC50 in data set [2] (Hepatitis C virus, 72 h) was above 10000 nM.
As to `C[C@@]1(Cl)[C@H](O)[C@@H](CO)O[C@H]1n1cc(F)c2c(N)ncnc21` [Compound 303], the CC50 in data set [1] is above 50 µM. For the same compound, the EC50 in data set [2] (Hepatitis C virus, 72 h) was above 10000 nM.

The record behind these values is patent US10513534B2, “2′-chloro nucleoside analogs for HCV infection” (priority 2012, dated 2019).
